Test results published in patent EP0696280B1, “SUBSTITUTED PYRROLIDIN-3-YL-ALKYL-PIPERIDINES USEFUL AS TACHYKININ ANTAGONISTS” (MERRELL PHARMACEUTICALS INC., priority 1993, dated 1994).
Counter-ions that a name gives are not always drawn.

Tested on: capsaicin-induced respiratory effects
Assay: Antagonism of capsaicin aerosol induced respiratory effects in conscious guinea pigs (whole body plethysmography)
Format: in vivo, guinea pig
Conditions: for DYSPNEA ONSET / MAXIMUM PRESSURE INCREASE (mmH2O) / SRE NUMBER*: mean and SEM; for SRE NUMBER*: number of coughs/gasps during 19 min exposure
Protocol: In vivo experiments were performed using male Duncan Hartley guinea pigs (250-350g). Changes in conscious breathing patterns were monitored in four animals simultaneously using modified whole body plethysmography consisting of four small plexiglass boxes each connected to a reference box via Validyne DP 45-16 differential pressure transducers. The 4 boxes were equipped with an air supply line (also used for aerosol delivery) and an exhaust air line. Supply and exhaust lines were of the same length and narrow bore and arose from a common supply chamber and vented to a common exhaust chamber. This system was used to ensure that fluctuations in supply air and atmospheric pressure would remain in phase and be eliminated from the net signal by the differential pressure transducers. The analog pressure signals were digitalized via a Data Translation DT2821 A to D board. Data were collected at a rate of 100 samples/second/animal. Each cycle of pressure change was analyzed using the following parameters: rising and falling slope determined between minimum and maximum pressures, the ratio of rising over falling slope, and the magnitude of the change between initial trough pressure and peak cycle pressure. Using these values (and observing the animals) the pressure cycles were characterized into normal breaths, forced exhalations (apparent by abdominal heaving), significant respiratory events (SREs; usually coughs, less often sneezes or gasps which were characterized by transient, extremely large pressure increases which were distinguishable from noise) and movement/noise with a PCAT 286 running a System V UNIX operating system. Dyspnea was defined as a significant, sustained increase in plethysmograph pressure which was associated with an observable shift to labored breathing in the animal.
During the course of a typical experiment in which airway responsiveness to various bronchoconstricting agents was examined, aerosols were delivered for 19 min (0.33 ml/min) using a DeVilbiss Ultraneb 99 ultrasonic nebulizer and animals monitored during this time. Prior to nebulization, 1 min of resting breathing was collected to establish a baseline pressure. […] The vehicle for nebulization of all bronchoconstrictive agents was phosphate buffered saline (pH 7.4) which elicited no respiratory effects itself. Putative tachykinin antagonists were administered either (i.v.) 20 min prior to onset of aerosol exposure or orally 1 hour prior to onset (to guinea pigs after an overnight fast).
Capsaicin aerosol is known to promote release of the tachykinins SP and NKA from sensory nerves in the airways of guinea pigs which may then act upon NK1 and NK2 receptors, respectively to elicit respiratory effects. […]
Values are mean and SEM of data derived from number of animals indicated in parenthesis. Putative tachykinin antagonists were administered intravenously 20 min prior to initiation of capsaicin aerosol (0.001%). *SRE number indicates the number of coughs/gasps which occurred during the 19 min capsaicin exposure period.
Values are mean and SEM of data derived from number of animals indicated in parenthesis. Putative tachykinin antagonists were administered by oral gavage 1 hr prior to initiation of capsaicin aerosol (0.001%). *SRE number indicates the number of coughs/gasps which occurred during the 19 min capsaicin exposure period.

[1] = 10 mg/kg intravenously 20 min prior to capsaicin aerosol (0.001%)
[2] = 25 mg/kg by oral gavage 1 hr prior to capsaicin aerosol (0.001%)
[3] = 50 mg/kg by oral gavage 1 hr prior to capsaicin aerosol (0.001%)
[4] = 100 mg/kg by oral gavage 1 hr prior to capsaicin aerosol (0.001%)

COc1cc(C(=O)N2CCC(CCN3CCC(C(N)=O)(c4ccccc4)CC3)(c3ccc(Cl)c(Cl)c3)C2)cc(OC)c1OC (racemic) [Example 3A, 1-[2-[3-(3,4-dichloro-phenyl-3-yl)-1-(3,4,5-trimethoxy-benzoyl)-pyrrolidin-3-yl]-ethyl] -4-phenyl-piperidine-4-carboxylic acid amide hydrochloride]
DYSPNEA INCIDENCE [1]: 89% (7/8) | DYSPNEA ONSET [1]: 480 ± 80 s | MAXIMUM PRESSURE INCREASE (mmH2O) [1]: 0.83 ± 0.18 mmH2O | SRE NUMBER* [1]: 8.50 ± 1.9 | DYSPNEA INCIDENCE [2]: 80% (8/10) | DYSPNEA ONSET [2]: 424 ± 120 s | MAXIMUM PRESSURE INCREASE (mmH2O) [2]: 0.7 ± 0.2 mmH2O | SRE NUMBER* [2]: 4.6 ± 1.0 | DYSPNEA INCIDENCE [3]: 70% (7/10) | DYSPNEA ONSET [3]: 434 ± 152 s | MAXIMUM PRESSURE INCREASE (mmH2O) [3]: 0.4 ± 0.1 mmH2O | SRE NUMBER* [3]: 2.8 ± 0.8 | DYSPNEA INCIDENCE [4]: 50% (5/10) | DYSPNEA ONSET [4]: 360 ± 120 s | MAXIMUM PRESSURE INCREASE (mmH2O) [4]: 0.4 ± 0.1 mmH2O | SRE NUMBER* [4]: 2.1 ± 0.5
